Source: patent US20180340947A1, “INVOLVEMENT OF THE BUFO[…] THE DIAGNOSIS AND TREATMENT OF POST-TRAUMATIC STRESS DISORDER (PTSD)” (priority 2017, published 2018)

Tests used:
[1] = tested on: traumatic brain injured animals; experiment: Urinary MBG excretion in sham and traumatic brain injured animals; format: in vivo
Source text: There are estimated to be between 300,000 to 350,000 veterans of the Middle East conflicts who currently suffer from PTSD related to wartime service. However, there are no proven methods to diagnose and stage the results of both physical and psychological trauma leading to PTSD, nor are there successful preventative or treatment methods. The interest in these military-associated problems has been accelerated by their potential application also to concussion in civilian life, especially to amateur, collegiate, and professional sports. Thus far, no solution has been enunciated nor has been proven (Meier and Ivory, Jul. 3, 2015, The New York Times). […] 114. […] It has been determined that a circulating cardiac glycoside (or “cardiotonic steroid”) called marinobufagenin (MBG) (FIG. 1), acts as both an indicator and initiator of the inflammatory process involved in TBI (FIG. 1) (Shapiro et al., The American Society for Clinical Pharmacology and Therapeutics, Dallas, Tex., Mar. 2-5, 2011. ASCPT Annual Meeting Program Booklet, p. 78; Puschett et al., Medical Research Archives 2015, ISSN 2375-1924; Oliver et al., J Experimental Neuroscience 2015, 9:67-72). […]

[2] = tested on: GFAP-labeled astrocytes in cortex after impact acceleration injury; experiment: GFAP immuno-fluorescence of brain after impact acceleration injury (IAI); format: in vivo; conditions: RBG at 1 hour after IAI
Description: FIGS. 2A-2C. Micrographs of GFAP (glial fibrillary acidic protein) immuno-fluorescence. GFAP antibody labels the intermediate filaments of most astrocytes in the brain. In the sham animals (FIG. 2A), a normal distribution of GFAP-labeled astrocytes is seen. At 24 hours after an impact acceleration injury (IAI; FIG. 2B), a noticeable scar is observed (arrows) in layers 2 and 3 of the cortex. There is also a patchy loss of GFAP-labeled astrocytes throughout cortex and the vasculature (arrowheads) appears damaged. The loss of GFAP immunoreactivity and the appearance of astrocyte hypertrophy are indicative of a neuroinflammatory response to injury. […] The RBG treatment also reduces the decrease in GFAP immunoreactivity and a greater proportion of GFAP-labeled astrocytes have a normal, rather than hypertrophied appearance.

[3] = tested on: rodent brain contusion model; experiment: Rodent brain contusion model; format: in vivo; conditions: given 1 hour after the insult
Source text: MBG is elevated in other syndromes such as preeclampsia and traumatic brain injury. It has been shown that the administration of the antagonist of MBG, resibufagenin (RBG), is therapeutically effective. […] RBG antagonizes MBG activity and may be an effective treatment for hypertension, ARDS, traumatic brain injury, and preeclampsia. Certain embodiments are directed to treating a patient having elevated levels of MBG by administering an MBG antagonist or anti-MBG agent. In certain aspects the anti-MBG agent is resibufagenin (RBG).

[4] = tested on: preeclampsia in animal models; conditions: cited from earlier work
[5] = in vitro; cited from earlier work
blood/brain barrier = conditions: including disruption of the blood/brain barrier; cited from earlier work

Question: For `C[C@]12CC[C@H](O)C[C@H]1CC[C@@H]1[C@@H]2CC[C@]2(C)[C@@H](c3ccc(=O)oc3)C[C@H]3O[C@]132` [RBG, resibufogenin], which “Urinary MBG excretion” value ([1]; TBI + RBG group, N = 10, sham 592.8 ± 79.3, TBI 1340.9 ± 308.5, P TBI vs. TBI + RBG = 0.02) is on record?
Answer: 475.3 ± 56.1

Question: What about the “Antagonism of the effects of MBG” value ([1]; animal model of TBI (FIG. 2, Table 1)) of the same compound?
Answer: antagonizes the effects of MBG

Question: What about the Glial scar ([2]; IAI+RBG animals) of the same compound?
Answer: A glial scar was not observed

Question: What about the “Alterations after IAI (glial scar, loss of GFAP immunoreactivity, astrocyte hypertrophy)” value ([2]; micrographs at 24 hours after IAI) of the same compound?
Answer: most of these alterations are ameliorated

Question: What about the Tissue injury [3] of the same compound?
Answer: amelioration of tissue injury

Question: And the Preeclampsia [4]?
Answer: prevents preeclampsia

Question: Which Vasoconstrictor action [5] does the source give for `C[C@]12CC[C@H](O)C[C@@]1(O)CC[C@@H]1[C@@H]2CC[C@]2(C)[C@@H](c3ccc(=O)oc3)C[C@H]3O[C@]132` [MBG, marinobufagenin] here?
Answer: acts in vitro as a vasoconstrictor

Question: What about the Vascular leak (blood/brain barrier) of the same compound?
Answer: cause vascular leak
